Test system: DMS-114 complex spheroids with HUVEC/MSC, growth % test/control
Assay: Anticancer human tumor DMS-114 cell line growth inhibition [AhR];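 also: spheroids exposed to agents for 7 days before readout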;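 as to viability, T/C: 100% = DMSO vehicle control wells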
Conditions: for IC50: curve of first compound; for viability, T/C: stronger effect = lower value
Outline: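 Spheroids combined tumor cells with HUVEC endothelial cells and human MSCs as stroma. AhR antagonists were paired with standard or investigational drugs, each dosed in half-log steps down from near clinical Cmax, or from 10 microM where Cmax was unknown.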

Which IC50 (second compound 0.1 µM) does the source give for `Cn1ncnc1C1c2n[nH]c(=O)c3cc(F)cc(c23)NC1c1ccc(F)cc1` (stereo not given) + Cc1ccccc1N=Nc1ccc(NC(=O)c2ccnn2C)c(C)c1 here?
The IC50 was greater than 100 nM.

What about the IC50 (second compound 0.316 µM) of the same compound?
Its IC50 is greater than 100 nM.

And the IC50 (second compound 1 µM)?
Its IC50 is greater than 100 nM.

What about the IC50 (second compound 3.16 µM) of the same compound?
The IC50 was greater than 100 nM.

And the IC50 (second compound 10 µM)?
The IC50 was greater than 100 nM.

What about the viability, T/C (second compound 0.1 µM, first compound 0.000316 µM) of the same compound?
The viability, T/C was 118%.

And the viability, T/C (second compound 0.1 µM, first compound 0.001 µM)?
The viability, T/C was 101%.

And the viability, T/C (second compound 0.1 µM, first compound 0.00316 µM)?
The viability, T/C was 111%.

What about the viability, T/C (second compound 0.1 µM, first compound 0.01 µM) of the same compound?
Its viability, T/C is 110%.

What about the viability, T/C (second compound 0.1 µM, first compound 0.0316 µM) of the same compound?
The viability, T/C was 120%.

What about the viability, T/C (second compound 0.1 µM, first compound 0.1 µM) of the same compound?
The viability, T/C was 107%.

And the viability, T/C (second compound 0.316 µM, first compound 0.000316 µM)?
The viability, T/C was 104%.

What about the viability, T/C (second compound 0.316 µM, first compound 0.001 µM) of the same compound?
The viability, T/C was 105%.

And the viability, T/C (second compound 0.316 µM, first compound 0.00316 µM)?
Its viability, T/C is 104%.

And the viability, T/C (second compound 0.316 µM, first compound 0.01 µM)?
Its viability, T/C is 113%.

What about the viability, T/C (second compound 0.316 µM, first compound 0.0316 µM) of the same compound?
Its viability, T/C is 104%.

And the viability, T/C (second compound 0.316 µM, first compound 0.1 µM)?
Its viability, T/C is 112%.

What about the viability, T/C (second compound 1 µM, first compound 0.000316 µM) of the same compound?
Its viability, T/C is 103%.

What about the viability, T/C (second compound 1 µM, first compound 0.001 µM) of the same compound?
Its viability, T/C is 112%.

What about the viability, T/C (second compound 1 µM, first compound 0.00316 µM) of the same compound?
The viability, T/C was 108%.

What about the viability, T/C (second compound 1 µM, first compound 0.01 µM) of the same compound?
Its viability, T/C is 101%.

And the viability, T/C (second compound 1 µM, first compound 0.0316 µM)?
The viability, T/C was 111%.

And the viability, T/C (second compound 1 µM, first compound 0.1 µM)?
Its viability, T/C is 113%.

What about the viability, T/C (second compound 3.16 µM, first compound 0.000316 µM) of the same compound?
The viability, T/C was 96%.

What about the viability, T/C (second compound 3.16 µM, first compound 0.001 µM) of the same compound?
Its viability, T/C is 104%.

And the viability, T/C (second compound 3.16 µM, first compound 0.00316 µM)?
The viability, T/C was 102%.

What about the viability, T/C (second compound 3.16 µM, first compound 0.01 µM) of the same compound?
Its viability, T/C is 111%.

What about the viability, T/C (second compound 3.16 µM, first compound 0.0316 µM) of the same compound?
The viability, T/C was 98.3%.

What about the viability, T/C (second compound 3.16 µM, first compound 0.1 µM) of the same compound?
Its viability, T/C is 104%.

What about the viability, T/C (second compound 10 µM, first compound 0.000316 µM) of the same compound?
The viability, T/C was 93.5%.

And the viability, T/C (second compound 10 µM, first compound 0.001 µM)?
Its viability, T/C is 93.3%.

What about the viability, T/C (second compound 10 µM, first compound 0.00316 µM) of the same compound?
The viability, T/C was 90%.

And the viability, T/C (second compound 10 µM, first compound 0.01 µM)?
The viability, T/C was 96.2%.

And the viability, T/C (second compound 10 µM, first compound 0.0316 µM)?
Its viability, T/C is 95.1%.

And the viability, T/C (second compound 10 µM, first compound 0.1 µM)?
The viability, T/C was 95%.
